Measured values published in PubChem BioAssay (NCI).
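Compound exposure: 48 hours, 5 concentrations, 96-well plates. GI50 marks 50% less growth. At the TGI there is no net growth.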

Assays:
Assay in all cases: NCI-60 cell line screen, 48 h
NCI-H23 lung = test system: NCI-H23 lung
NCI/ADR-RES ovarian = test system: NCI/ADR-RES ovarian
LOX IMVI melanoma = test system: LOX IMVI melanoma
M14 melanoma = test system: M14 melanoma
KM12 colon = test system: KM12 colon
HCT-15 colon = test system: HCT-15 colon
U251 CNS = test system: U251 CNS
MDA-MB-435 = test system: MDA-MB-435
HCT-116 colon = test system: HCT-116 colon
UO-31 renal = test system: UO-31 renal

| Compound | GI50 (NCI-H23 lung) [µM] | TGI (NCI-H23 lung) [µM] | GI50 (NCI/ADR-RES ovarian) [µM] | TGI (NCI/ADR-RES ovarian) [µM] | GI50 (LOX IMVI melanoma) [µM] | TGI (LOX IMVI melanoma) [µM] | GI50 (M14 melanoma) [µM] | TGI (M14 melanoma) [µM] | GI50 (KM12 colon) [µM] | TGI (KM12 colon) [µM] | GI50 (HCT-15 colon) [µM] | TGI (HCT-15 colon) [µM] | GI50 (U251 CNS) [µM] | TGI (U251 CNS) [µM] | GI50 (MDA-MB-435) [µM] | TGI (MDA-MB-435) [µM] | GI50 (HCT-116 colon) [µM] | TGI (HCT-116 colon) [µM] | GI50 (UO-31 renal) [µM] | TGI (UO-31 renal) [µM] |
| --- | --- | --- | --- | --- | --- | --- | --- | --- | --- | --- | --- | --- | --- | --- | --- | --- | --- | --- | --- | --- |
| CC(C)Oc1ccc2cc(-c3nn(CC4CCNCC4)c4ncnc(N)c34)ccc2c1 | 11.3 | 25.8 | 6.23 | 19.6 | 16.7 | 33.8 | 2.05 | 4.68 | 12.6 | 26.4 | 3.74 | 15.8 | 9.02 | 21.7 | 3.86 | 14.6 | 6.78 | 19.8 | 4.15 | 18.9 |
| Clc1ccc2[nH]cc(-c3nnnn3-c3ccccc3)c2c1 | 8.11 | 49.9 | 7.61 | 41.8 | 10.5 | > 53.5 | 9.74 | 41.8 | 2.99 | 19 | 12 | > 100 | 14 | > 78.9 | 1.64 | 4.16 | 18.3 | 57.5 | 26.9 | > 100 |
| CC[C@H]1[C@@H]2C=C[C@@H]3[C@H]4C/C=C\C(=O)NCCC[C@@H]5NC(=O)/C(=C(O)/C=C/[C@@H]4C[C@@H]3[C@H]2C[C@H]1C)C5=O | 1.81 | 4.28 | 0.815 | 2.36 | 0.662 | 1.96 | 1.58 | 3.08 | 3.03 | 9.88 | 0.425 | 1.86 | 1.82 | 3.33 | 0.982 | 2.25 | 1.48 | 3.03 | 0.546 | 1.91 |
| O=C1OCC2=C1C(c1cccc(Br)c1)c1cc3c(cc1N2CCO)CCC3 (configuration not stated) | 0.136 | 8.42 | 0.025 | 0.234 | 0.119 | 7.56 | 0.078 | 5.78 | 0.0329 | 1.04 | 0.114 | 7.14 | 0.108 | 1.55 | 0.0132 | 0.0423 | 0.0904 | 3.04 | 0.0997 | 8.2 |
| Cn1cc(C2=C(c3cn(CCCCO)c4ccccc34)C(=O)NC2=O)c2ccccc21 | 10.1 | > 25 | 11.2 | > 25 | 5.62 | > 25 | 16.6 | > 25 | 7.09 | > 23 | 7.72 | > 25 | 8.55 | > 25 | 8.81 | > 25 | 7.63 | > 25 | 6.33 | > 20.1 |
| CN(C)CC[PH+](c1ccccc1)c1ccccc1.CN(C)CC[PH+](c1ccccc1)c1ccccc1.[Cl-].[Pd+2] | > 100 | > 100 | > 100 | > 100 | > 100 | > 100 | > 100 | > 100 | > 100 | > 100 | > 100 | > 100 | > 100 | > 100 | > 100 | > 100 | > 100 | > 100 | > 100 | > 100 |
| CS(=O)(=O)CCNCc1nc(-c2ccc3ncnc(Nc4ccc(OCc5cccc(C(F)(F)F)c5)cc4)c3c2)cs1 | 12.5 | > 25 | > 25 | > 25 | > 25 | > 25 | > 25 | > 25 | > 25 | > 25 | > 25 | > 25 | 5.9 | > 22.6 | > 25 | > 25 | > 18.7 | > 25 | > 22.6 | > 25 |
| COc1ccc(/C=C2/N=C(c3ccccc3)N(c3c(C)n(C)n(-c4ccccc4)c3=O)C2=O)cc1OC | > 100 | > 100 | > 100 | > 100 | > 100 | > 100 | > 100 | > 100 | > 100 | > 100 | > 100 | > 100 | > 100 | > 100 | > 100 | > 100 | > 100 | > 100 | > 100 | > 100 |
| Cc1ncc(C(=O)Nc2ccc(CN3CCN(C)CC3)c(C(F)(F)F)c2)cc1C#Cc1cnc(N)c2ccncc12 | 1.34 | 3.35 | 1.61 | 5.47 | 0.337 | 1.4 | 0.783 | 2.5 | 0.441 | 1.82 | 1.26 | 4.42 | 1.55 | 3.35 | 1.43 | 2.86 | 1.19 | 2.56 | 0.457 | 2.27 |
| CN1C(=O)N(C)C2C1NN=c1s/c(=C\c3ccc(Cl)cc3Cl)c(=O)n12 (configuration not stated) | 0.37 | 52.9 | 0.13 | 18.1 | 0.159 | > 100 | 0.167 | > 37.9 | 0.134 | > 75.4 | 0.0882 | > 100 | 0.192 | > 100 | 0.0333 | 2.11 | 0.131 | > 40.2 | 0.892 | > 71.8 |
| O=C1C=CC(=O)c2cc3cc(CBr)ccc3cc21 | 9.84 | 30.8 | 6.78 | 32.4 | 1.44 | 3.02 | 8.58 | 23.4 | 17.5 | 38.4 | 5.95 | 17.3 | 14.4 | 36.2 | 11.8 | 33.7 | 0.606 | 1.89 | 3.59 | > 100 |
| CC(=O)OC12C=CC(=O)N1c1ccccc1C(=O)O2 (configuration not stated) | – | > 100 | > 100 | > 100 | – | > 100 | – | > 100 | – | > 100 | – | > 100 | – | > 100 | > 100 | > 100 | – | > 100 | – | > 100 |
